{"source": "patent US5827827A", "about": "“HIV-1 protease inhibitors” (The Scripps Research Institute, priority 1996, dated 1998)", "key": {"HIV-1 protease": {"target": "T1, HIV-1 protease (Human immunodeficiency virus type 1 group M subtype B, UniProt P03369)", "T1 construct": "each of the identical 99 amino acid subunits contributes a single aspartyl residue to the catalytic site; made in house; host or cells: chemical synthesis (no expression host); obtained from Dr. Stephen Kent, The Scripps Research Institute", "assay": "HIV-1 PR inhibition (HPLC assay of HIV substrate IV cleavage after preincubation with inhibitor)", "format": "biochemical", "procedure": "Typical reactions were carried out at room temperature (25° C.) in 150 μl total volumes of 100 mM MES buffer, pH 6.2, containing 1 mM ethylenediaminetetraacetic acid (EDTA) and 2 mM dithiothreitol (DTT) plus 0.1 percent (v/v) Triton X-100.\nSynthetic HIV-1 protease [0.5 μg, obtained from Dr. Stephen Kent of The Scripps Research Institute; see Cell, 1988, 54; 363-368] was first incubated in buffer with (or without) various concentrations of \"inhibitor(s)\" for 30 minutes at 25° C. The protease reaction was then initiated by the addition of HIV substrate IV (Bachem Bioscience Inc.) at fixed concentrations (e.g., 100 mg/ml). HIV Substrate IV has the sequence\nLys-Ala-Arg-Val-Nle-p-NO2 Phe-glu-Ala-Nle-NH2 (SEQ ID NO 15)\nAt three appropriate times (normally 40, 80 and 120 minutes) the hydrolysis was stopped by adding a 40 μl aliquot from the reaction to 40 μl of a prepared quench solution. The quench solution was 1:4 acetonitrile:water (3 percent trifluoroacetic acid; TFA) and contained 150 μM m-toluic acid which served as an HPLC standard. […] Reaction progress was monitored by following the increasing absorbance (peak height) of the substrate IV cleavage product detected at […]. […]"}, "HIV-1 PR": {"system": "HIV-1 PR", "settings": "Blumenstein et al. 1989; cited from earlier work"}, "HIV-2 PR": {"system": "HIV-2 PR", "settings": "Blumenstein et al. 1989; cited from earlier work"}}, "data": [{"smiles": "CC(C)(C)OC(=O)N[C@@H](Cc1ccccc1)C1(C)CO1", "note": "(stereo partly shown) [Example 2]", "values": [{"measurement": "t1/2 of inactivation of the protease", "setting": "HIV-1 protease; 2 mM inhibitor, preincubation, 25° C., pH 6.2", "result": 3, "unit": "h"}, {"measurement": "mode of inhibition of HIV-1 PR", "setting": "HIV-1 protease; preincubation with 2 mM inhibitor (FIG. 1)", "result": "competitive and timedependent inactivation"}]}, {"smiles": "C/C=C/C/C=C/CCC(=O)[C@H]1O[C@H]1C(N)=O", "note": "[cerulenin]", "values": [{"measurement": "inhibition of HIV-1 PR", "setting": "HIV-1 PR", "result": "weakly inhibit"}, {"measurement": "inhibition of HIV-2 PR", "setting": "HIV-2 PR", "result": "weakly inhibit"}]}]}
